For one data set, the target named is T1, hGIPR (Homo sapiens, UniProt P48546).
T1 construct: expressed in transfected cells; host or cells: CHO CRE-luciferase reporter cells
T1 sequence (P48546 22-466): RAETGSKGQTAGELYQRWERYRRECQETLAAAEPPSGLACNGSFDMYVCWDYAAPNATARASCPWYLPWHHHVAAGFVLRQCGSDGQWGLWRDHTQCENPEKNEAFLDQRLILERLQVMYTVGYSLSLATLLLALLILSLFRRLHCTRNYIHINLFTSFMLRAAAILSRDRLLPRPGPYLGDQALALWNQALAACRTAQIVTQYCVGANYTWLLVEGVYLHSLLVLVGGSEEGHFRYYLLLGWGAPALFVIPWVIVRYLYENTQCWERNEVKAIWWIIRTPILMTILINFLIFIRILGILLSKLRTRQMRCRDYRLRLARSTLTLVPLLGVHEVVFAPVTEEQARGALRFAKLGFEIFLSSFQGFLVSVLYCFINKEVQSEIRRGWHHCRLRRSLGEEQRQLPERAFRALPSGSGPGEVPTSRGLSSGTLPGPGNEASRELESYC
Description: hGIPR CreLuc assay in 0.5% and 100% plasma (CHO CRE-luciferase reporter cells). The class given is cell-based. Particulars: 0.5% human plasma, read-out: hGIPR 0.5% hP.

The next data set concerns the target T2, hNPY2R (Homo sapiens, UniProt P49146).
T2 construct: expressed in transfected cells; host or cells: HEK-293 CRE-luciferase reporter cells
T2 sequence (P49146 1-381): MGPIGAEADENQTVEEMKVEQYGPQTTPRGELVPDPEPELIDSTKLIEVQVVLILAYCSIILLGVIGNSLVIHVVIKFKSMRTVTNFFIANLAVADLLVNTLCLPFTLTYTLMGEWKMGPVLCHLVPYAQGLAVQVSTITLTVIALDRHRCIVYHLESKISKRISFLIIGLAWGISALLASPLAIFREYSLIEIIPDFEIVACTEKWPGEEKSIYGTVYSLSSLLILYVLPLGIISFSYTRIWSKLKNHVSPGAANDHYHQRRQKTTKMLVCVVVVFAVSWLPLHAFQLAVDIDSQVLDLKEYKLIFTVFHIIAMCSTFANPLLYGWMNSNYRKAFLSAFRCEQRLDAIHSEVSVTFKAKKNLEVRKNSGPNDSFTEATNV
Description: hNPY2R CreLuc assay in 0.5% and 100% plasma (HEK-293 CRE-luciferase reporter cells). Format: cell-based. Particulars: HEK-293 reporter cells. (A reporter such as luciferase makes a cellular process visible.)

A short description of data set [1]: Solubility in 0.1 M phosphate buffer at pH 7. The class given is physicochemical. Particulars: 0.1 M phosphate buffer at pH 7, 10 mg/mL final peptide concentration, shaking 2 hours at room temperature, peptides as TFA-salts; measured sample pH 6.5-7.0.
Data set [2] in a line: Mouse PK after intravenous application. The class given is in vivo. Particulars: plasma, male NMRI mice, intravenous 30-60 nmol/kg, non-compartmental analysis. Here is the method: Pharmacokinetic parameters of the peptides were determined after intravenous application to NMRI mice (Naval Medical Research Institute mice). Male NMRI mice were obtained from Janvier Laboratories (France) weighing 30 g to 40 g. Mice were housed in standard cages with a 12:12 hours light:dark cycle and standard food and water access ad libitum. Each test peptide was dissolved in 50 mM phosphate buffer (pH 7.4)/3.5% mannitol. Intravenous application of 30-60 nmol/kg was performed via the tail vein. Serial blood samples from conscious mice were collected from the saphenous vein in EDTA-containing vials at different time points up to 56 hours post-dosing. Subsequently, plasma was prepared by centrifugation for 5 minutes at approximately 5000 rpm and stored at −20° C. until quantification of the peptide plasma levels by liquid chromatography mass spectrometry (LC-MS). Individual plasma concentration-time profiles were analysed by a non-compartmental approach and the resulting pharmacokinetic parameters were calculated.

For the next data set, the target named is T3, hGLP1R (Homo sapiens, UniProt P43220).
T3 construct: expressed in transfected cells; host or cells: HEK-293 CRE-luciferase reporter cells
T3 sequence (P43220 24-463): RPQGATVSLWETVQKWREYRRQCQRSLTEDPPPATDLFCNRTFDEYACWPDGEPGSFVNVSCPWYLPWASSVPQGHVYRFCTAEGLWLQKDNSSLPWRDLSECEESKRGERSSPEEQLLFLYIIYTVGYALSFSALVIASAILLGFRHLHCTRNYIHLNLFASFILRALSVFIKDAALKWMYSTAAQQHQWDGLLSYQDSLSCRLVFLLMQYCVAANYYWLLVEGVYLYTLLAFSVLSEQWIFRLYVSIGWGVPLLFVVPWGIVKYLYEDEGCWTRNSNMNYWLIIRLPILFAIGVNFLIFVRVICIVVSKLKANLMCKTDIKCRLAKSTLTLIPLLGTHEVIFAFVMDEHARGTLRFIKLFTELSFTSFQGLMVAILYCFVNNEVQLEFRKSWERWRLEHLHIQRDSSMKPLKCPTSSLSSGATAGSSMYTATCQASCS
Nature of the data set: hGLP1R CreLuc assay in 0.5% and 100% plasma (HEK-293 CRE-luciferase reporter cells). Format: cell-based. Particulars: HEK-293 reporter cells.

Where [3] appears, read: 0.5% human plasma, read-out: hGLP1R 0.5% hP.
Where [4] appears, read: 0.5% human plasma, read-out: hNPY2R 0.5% hP.

pEC50: −log10 of the molar value. Like-named read-outs stand apart in the source and are kept apart here.

On to `CC[C@H](C)[C@H](NC(=O)[C@H](CC(C)C)NC(=O)[C@H](Cc1c[nH]cn1)NC(=O)[C@H](CCCNC(=N)N)NC(=O)[C@@H](NC(=O)[C@H](Cc1ccccc1)NC(=O)[C@H](C)NC(=O)C(C)(C)NC(=O)[C@H](CCC(=O)O)NC(=O)[C@H](C)NC(=O)[C@H](CCC(N)=O)NC(=O)[C@H](CCCCN)NC(=O)[C@H](CCC(=O)O)NC(=O)[C@H](CC(C)C)NC(=O)C(C)(C)NC(=O)[C@@H](NC(=O)[C@H](CO)NC(=O)[C@H](Cc1ccc(O)cc1)NC(=O)[C@H](CC(=O)O)NC(=O)[C@H](CO)NC(=O)[C@@H](NC(=O)[C@H](Cc1ccccc1)NC(=O)[C@@H](NC(=O)CNC(=O)[C@H](CCC(=O)O)NC(=O)C(C)(C)NC(=O)[C@@H](N)Cc1ccc(O)cc1)[C@@H](C)O)[C@@H](C)O)[C@@H](C)CC)C(C)C)C(=O)N[C@@H](CC(N)=O)C(=O)N[C@@H](CCCCNC(=O)[C@@H](N)CCCCNC(=O)CC[C@H](NC(=O)CC[C@H](NC(=O)CC[C@H](NC(=O)CC[C@H](NC(=O)CC[C@H](NC(=O)CC[C@H](NC(=O)CCCCCCCCCCCCCCCCC(=O)O)C(=O)O)C(=O)O)C(=O)O)C(=O)O)C(=O)O)C(=O)O)C(=O)NC(C)(C)C(=O)N[C@H](C(=O)N[C@@H](CCCNC(=N)N)C(=O)N[C@@H](CCC(N)=O)C(=O)N[C@@H](CCCNC(=N)N)C(=O)N[C@@H](Cc1ccc(O)cc1)C(N)=O)[C@@H](C)O` [Compound 10, Y-Aib-E-G-T-F-T-S-D-Y-S-I-Aib-L-E-K-Q-A-E-Aib-A-F-V-R-H-L-I-N-K(1,3)-Aib-T-R-Q-R-Y-NH2.C18DA-gGlu-gGlu-gGlu-gGlu-gGlu-gGlu-eLys(1,2)], for which the pEC50 is 9.22 on hGIPR and 7.55 on hNPY2R (100% human plasma, read-out: hNPY2R 100% hP). The solubility (commonly how much of the substance goes into solution per volume) at 2 h in data set [1] amounted to 3800 µg/mL. In data set [2], the MRT (commonly the average time that molecules of a dose stay in the body) came to 7.3 h.
`CC[C@H](C)[C@H](NC(=O)[C@H](CC(C)C)NC(=O)[C@H](Cc1c[nH]cn1)NC(=O)[C@H](CCCNC(=N)N)NC(=O)[C@@H](NC(=O)[C@H](Cc1ccccc1)NC(=O)[C@H](CCC(=O)O)NC(=O)C(C)(C)NC(=O)[C@H](CCC(N)=O)NC(=O)[C@H](C)NC(=O)[C@H](CCC(N)=O)NC(=O)[C@H](CCCCN)NC(=O)[C@H](CCC(=O)O)NC(=O)[C@H](CC(C)C)NC(=O)C(C)(C)NC(=O)[C@@H](NC(=O)[C@H](CO)NC(=O)[C@H](Cc1ccc(O)cc1)NC(=O)[C@H](CC(=O)O)NC(=O)[C@H](CO)NC(=O)[C@@H](NC(=O)[C@H](Cc1ccccc1)NC(=O)[C@@H](NC(=O)CNC(=O)[C@H](CCC(=O)O)NC(=O)C(C)(C)NC(=O)[C@@H](N)Cc1ccc(O)cc1)[C@@H](C)O)[C@@H](C)O)[C@@H](C)CC)C(C)C)C(=O)N[C@@H](CC(N)=O)C(=O)N[C@@H](CCCCNC(=O)[C@@H](N)CCCCNC(=O)CC[C@H](NC(=O)CC[C@H](NC(=O)CC[C@H](NC(=O)CC[C@H](NC(=O)CC[C@H](NC(=O)CC[C@H](NC(=O)CCCCCCCCCCCCCCCCC(=O)O)C(=O)O)C(=O)O)C(=O)O)C(=O)O)C(=O)O)C(=O)O)C(=O)N[C@@H](CC(C)C)C(=O)N[C@H](C(=O)N[C@@H](CCCNC(=N)N)C(=O)N[C@@H](CCC(N)=O)C(=O)N[C@@H](CCCNC(=N)N)C(=O)N[C@@H](Cc1ccc(O)cc1)C(N)=O)[C@@H](C)O` [Compound 83, Y-Aib-E-G-T-F-T-S-D-Y-S-I-Aib-L-E-K-Q-A-Q-Aib-E-F-V-R-H-L-I-N-K(1,3)-L-T-R-Q-R-Y-NH2.C18DA-gGlu-gGlu-gGlu-gGlu-gGlu-gGlu-eLys(1,2)]: the results for the pEC50 at hGLP1R (setting [3]), at hGIPR and on hNPY2R (setting [4]) were 9.22, 9.40 and 7.77, respectively. In addition, the solubility at 2 h in data set [1] stood at 3800 µg/mL. This compound had an MRT in data set [2] of 7.8 h.
On to `CC[C@H](C)[C@H](NC(=O)[C@H](CC(C)C)NC(=O)[C@H](Cc1c[nH]cn1)NC(=O)[C@H](CCCNC(=N)N)NC(=O)[C@@H](NC(=O)[C@H](Cc1ccccc1)NC(=O)[C@H](C)NC(=O)C(C)(C)NC(=O)[C@H](CCC(N)=O)NC(=O)[C@H](C)NC(=O)[C@H](CCC(N)=O)NC(=O)[C@H](CCCCN)NC(=O)[C@H](CCC(=O)O)NC(=O)[C@H](CC(C)C)NC(=O)C(C)(C)NC(=O)[C@@H](NC(=O)[C@H](CO)NC(=O)[C@H](Cc1ccc(O)cc1)NC(=O)[C@H](CC(=O)O)NC(=O)[C@H](CO)NC(=O)[C@@H](NC(=O)[C@H](Cc1ccccc1)NC(=O)[C@@H](NC(=O)CNC(=O)[C@H](CCC(=O)O)NC(=O)C(C)(C)NC(=O)[C@@H](N)Cc1ccc(O)cc1)[C@@H](C)O)[C@@H](C)O)[C@@H](C)CC)C(C)C)C(=O)N[C@@H](CC(N)=O)C(=O)N[C@@H](CCCCNC(=O)CC[C@H](NC(=O)CC[C@H](NC(=O)CC[C@H](NC(=O)CC[C@H](NC(=O)CC[C@H](NC(=O)CC[C@H](NC(=O)CCCCCCCCCCCCCCCCC(=O)O)C(=O)O)C(=O)O)C(=O)O)C(=O)O)C(=O)O)C(=O)O)C(=O)NC(C)(C)C(=O)N[C@H](C(=O)N[C@@H](CCCNC(=N)N)C(=O)N[C@@H](CCC(N)=O)C(=O)N[C@@H](CCCNC(=N)N)C(=O)N[C@@H](Cc1ccc(O)cc1)C(N)=O)[C@@H](C)O` [Compound 134, Y-Aib-E-G-T-F-T-S-D-Y-S-I-Aib-L-E-K-Q-A-Q-Aib-A-F-V-R-H-L-I-N-K(1,3)-Aib-T-R-Q-R-Y-NH2.C18DA-gGlu-gGlu-gGlu-gGlu-gGlu-gGlu(1,2)], for which the pEC50 on hGLP1R (setting [3]) is 9.00; at hGLP1R (100% human plasma, read-out: hGLP1R 100% hP), 8.40; at hGIPR, 9.40; on hNPY2R (setting [4]), 7.48. The MRT in data set [2] is 5.3 h.

Source of the values: patent publication US20250382344A1, “Soluble GLP1/GIP/NPY2 Receptor Triple Agonists” (Boehringer Ingelheim International GmH, priority 2024, published 2025).
